Assay results published in paper PMC9250534, “Synthesis and direct assay of large macrocycle diversities by combinatorial late-stage modification at picomole scale” (Nature Communications, 2022).
Numbered stars: 1 amine (or outer) side, 2 acyl side, 3 side chain; on linkers, the order of the positions; unused ones are H or OH. Bridge positions count the residues as written; N and C are the ends. Square brackets hold non-standard residues; d marks the D form. Peptide text beside a SMILES is read from it. * marks the point of attachment. 1,2,3Thiadiazole5CO(4-Me) = Cc1nnsc1C(=O)*; Phenoxyacetyl = O=C(COc1ccccc1)*; Cysteamide = C(CS[*:3])N[*:1]; 4Amb = NCc1ccc(C(=O)O)cc1; Isovaleryl = CC(C)CC(=O)*; Orn = NCCC[C@H](N)C(=O)O; 2Furoyl = O=C(c1ccco1)*; Bz = O=C(c1ccccc1)*; βAla = NCCC(=O)O; Mpa = O=C(O)CCS

molecular target: T1, thrombin (Homo sapiens, UniProt P00734); assay: Thrombin inhibition screen of crude macrocycle reactions (residual thrombin activity, fluorogenic substrate Z-Gly-Gly-Arg-AMC); type: biochemical; conditions: 10 µM macrocycle concentration; crude reactions, Library 1a-l; scaffold AA1-AA2-AA3 combined with 1-16 or '-'
T1 construct: consists of two polypeptide chains of 36 (light chain) and 259 amino acid
Procedure, shortened: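 Each crude macrocycle (10 μM) was preincubated 10 min at room temperature with thrombin (2 nM final) in Tris-Cl pH 7.4 containing NaCl, MgCl2, CaCl2, 0.1% BSA, 0.01% Triton X-100 and 0.6% DMSO. Z-Gly-Gly-Arg-AMC (50 μM final) was then added. Inhibition came from fluorescence slopes relative to DMSO-only controls.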

percent residual thrombin activity | Compound
107.459% | COc1ccc(C(=O)NCCC[C@@H]2NC(=O)CCSSCCNC(=O)CCNC(=O)[C@H](CO)NC2=O)cn1 [D2-S-B2/10]
110.146% | O=C1CCNC(=O)[C@H](CO)NC(=O)[C@H](CCCNC(=O)Cc2c[nH]c3ccccc23)NC(=O)CCSSCCN1 [D2-S-B2/12]
105.361% | O=C1CCNC(=O)[C@H](CO)NC(=O)[C@H](CCCNC(=O)c2ccc(Cl)s2)NC(=O)CCSSCCN1 [D2-S-B2/14]
105.41% | O=C1CCSSCCNC(=O)c2ccc(cc2)CNC(=O)[C@H](Cc2c[nH]c3ccccc23)NC(=O)[C@H](CCCNC(=O)c2ccccc2)N1 [D2-W-B3/1] ([Mpa][Orn](Bz)W[4Amb]-Cysteamide; disulfide 1-C)
111.429% | O=C1CCSSCCNC(=O)c2ccc(cc2)CNC(=O)[C@H](Cc2c[nH]c3ccccc23)NC(=O)[C@H](CCCNC(=O)c2c[nH]c(=O)cn2)N1 [D2-W-B3/9]
121.031% | O=C1CCSSCCNC(=O)c2ccc(cc2)CNC(=O)[C@H](Cc2c[nH]c3ccccc23)NC(=O)[C@H](CCCNC(=O)c2c[nH]c(=O)[nH]c2=O)N1 [D2-W-B3/11]
112.189% | O=C(Cc1c[nH]c2ccccc12)NCCC[C@@H]1NC(=O)CCSSCCNC(=O)c2ccc(cc2)CNC(=O)[C@H](Cc2c[nH]c3ccccc23)NC1=O [D2-W-B3/12]
117.613% | O=C(COc1ccccc1)NCCC[C@@H]1NC(=O)CCSSCCNC(=O)c2ccc(cc2)CNC(=O)[C@H](Cc2c[nH]c3ccccc23)NC1=O [D2-W-B3/13]
109.796% | O=C1CCSSCCNC(=O)c2ccc(cc2)CNC(=O)[C@H](Cc2c[nH]c3ccccc23)NC(=O)[C@H](CCCNC(=O)c2ccc(Cl)s2)N1 [D2-W-B3/14]
116.257% | Cc1nnsc1C(=O)NCCC[C@@H]1NC(=O)CCSSCCNC(=O)c2ccc(cc2)CNC(=O)[C@H](Cc2c[nH]c3ccccc23)NC1=O [D2-W-B3/15]
110.008% | NCCC[C@@H]1NC(=O)CCSSCCNC(=O)c2ccc(cc2)CNC(=O)[C@H](Cc2c[nH]c3ccccc23)NC1=O [D2-W-B3/-] ([Mpa][Orn]W[4Amb]-Cysteamide; disulfide 1-C)
105.138% | O=C1CCSSCCNC(=O)[C@@H]2CCCN2C(=O)[C@H](Cc2ccc(O)cc2)NC(=O)[C@H](CCCNC(=O)c2ccco2)N1 [D2-Y-B1/16] ([Mpa][Orn](2Furoyl)YP-Cysteamide; disulfide 1-C)
113.72% | C[C@H]1NC(=O)[C@H](CCCNC(=O)c2ccccc2)NC(=O)CCSSCCNC(=O)CCNC1=O [D2-a-B2/1] ([Mpa][Orn](Bz)[dA][βAla]-Cysteamide; disulfide 1-C)
113.133% | COc1ccc(C(=O)NCCC[C@@H]2NC(=O)CCSSCCNC(=O)CCNC(=O)[C@@H](C)NC2=O)cn1 [D2-a-B2/10]
109.862% | C[C@H]1NC(=O)[C@H](CCCNC(=O)Cc2c[nH]c3ccccc23)NC(=O)CCSSCCNC(=O)CCNC1=O [D2-a-B2/12]
108.542% | C[C@H]1NC(=O)[C@H](CCCNC(=O)c2ccc(Cl)s2)NC(=O)CCSSCCNC(=O)CCNC1=O [D2-a-B2/14]
108.059% | CC(C)CC(=O)NCCCC[C@@H]1NC(=O)[C@H](Cc2ccccc2)NC(=O)CCSSCCNC(=O)[C@H]2CCCN(C2)C1=O [F-D1-B4/8]
109.797% | O=C(COc1ccccc1)NCCCC[C@@H]1NC(=O)[C@H](Cc2ccccc2)NC(=O)CCSSCCNC(=O)[C@H]2CCCN(C2)C1=O [F-D1-B4/13]
108.958% | CC(C)CC(=O)NCCC[C@@H]1NC(=O)CCNC(=O)[C@H](Cc2cnc[nH]2)NC(=O)CCSSCCNC1=O [H-B2-D2/8]
106.277% | O=C1CCNC(=O)[C@H](Cc2c[nH]cn2)NC(=O)CCSSCCNC(=O)[C@H](CCCNC(=O)c2c[nH]c(=O)cn2)N1 [H-B2-D2/9]
112.021% | O=C1CCNC(=O)[C@H](Cc2c[nH]cn2)NC(=O)CCSSCCNC(=O)[C@H](CCCNC(=O)c2c[nH]c(=O)[nH]c2=O)N1 [H-B2-D2/11]
94.6113% | O=C1CCNC(=O)[C@H](Cc2c[nH]cn2)NC(=O)CCSSCCNC(=O)[C@H](CCCNC(=O)c2ccc(Cl)s2)N1 [H-B2-D2/14]
110.75% | O=C1CCNC(=O)[C@H](Cc2c[nH]cn2)NC(=O)CCSSCCNC(=O)[C@H](CCCNC(=O)c2ccco2)N1 [H-B2-D2/16]
98.3606% | COc1ccc(C(=O)NCCCC[C@@H]2NC(=O)c3cccc(c3)CNC(=O)[C@H](Cc3cnc[nH]3)NC(=O)CCSSCCNC2=O)cn1 [H-B5-D1/10]
101.253% | NCCCC[C@@H]1NC(=O)c2cccc(c2)CNC(=O)[C@H](Cc2cnc[nH]2)NC(=O)CCSSCCNC1=O [H-B5-D1/-]
104.965% | CC[C@H](C)[C@@H]1NC(=O)CCSSCCNC(=O)[C@H](CCCCNC(=O)c2cc(C)on2)NC(=O)c2cccc(c2)CNC1=O [I-B5-D1/3]

percent residual thrombin activity | Compound
106.327% | CC[C@H](C)[C@@H]1NC(=O)CCSSCCNC(=O)[C@H](CCCCNC(=O)c2c[nH]c(=O)[nH]c2=O)NC(=O)c2cccc(c2)CNC1=O [I-B5-D1/11]
103.325% | CC[C@H](C)[C@@H]1NC(=O)CCSSCCNC(=O)[C@H](CCCCN)NC(=O)c2cccc(c2)CNC1=O [I-B5-D1/-]
114.834% | CC[C@H](C)[C@@H]1NC(=O)CCSSCCNC(=O)[C@H]2CCCN(C2)C(=O)[C@H](CCCCNC(=O)c2cnccn2)NC1=O [I-D1-B4/2]
113.791% | CC[C@H](C)[C@@H]1NC(=O)CCSSCCNC(=O)[C@H]2CCCN(C2)C(=O)[C@H](CCCCNC(=O)c2c[nH]c(=O)[nH]c2=O)NC1=O [I-D1-B4/11]
114.483% | CC[C@H](C)[C@@H]1NC(=O)CCSSCCNC(=O)[C@H]2CCCN(C2)C(=O)[C@H](CCCCN)NC1=O [I-D1-B4/-]
106.945% | CC(C)CC(=O)NCCC[C@@H]1NC(=O)[C@H]2CCCN(C2)C(=O)[C@H](CC(C)C)NC(=O)CCSSCCNC1=O [L-B4-D2/8]
107.664% | COc1ccc(C(=O)NCCC[C@@H]2NC(=O)[C@H]3CCCN(C3)C(=O)[C@H](CC(C)C)NC(=O)CCSSCCNC2=O)cn1 [L-B4-D2/10]
105.489% | CC(C)C[C@@H]1NC(=O)CCSSCCNC(=O)[C@H](CCCNC(=O)Cc2c[nH]c3ccccc23)NC(=O)[C@H]2CCCN(C2)C1=O [L-B4-D2/12]
110.982% | CC(C)C[C@@H]1NC(=O)CCSSCCNC(=O)[C@H](CCCNC(=O)COc2ccccc2)NC(=O)[C@H]2CCCN(C2)C1=O [L-B4-D2/13]
97.6394% | CC(C)C[C@@H]1NC(=O)CCSSCCNC(=O)[C@H](CCCNC(=O)c2ccc(Cl)s2)NC(=O)[C@H]2CCCN(C2)C1=O [L-B4-D2/14]
109.552% | CC(C)C[C@@H]1NC(=O)CCSSCCNC(=O)[C@H](CCCN)NC(=O)[C@H]2CCCN(C2)C1=O [L-B4-D2/-]
107.636% | CC(C)C[C@@H]1NC(=O)CCSSCCNC(=O)[C@H](CCCCNC(=O)c2cnccn2)NC(=O)C2(CC2)CNC1=O [L-B6-D1/2]
98.21% | CC(C)C[C@@H]1NC(=O)CCSSCCNC(=O)[C@H](CCCCNC(=O)c2c[nH]c(=O)cn2)NC(=O)C2(CC2)CNC1=O [L-B6-D1/9]
94.7651% | CC(C)C[C@@H]1NC(=O)CCSSCCNC(=O)[C@H](CCCCNC(=O)c2ccc(Cl)s2)NC(=O)C2(CC2)CNC1=O [L-B6-D1/14]
103.319% | CC(C)C[C@@H]1NC(=O)CCSSCCNC(=O)[C@H](CCCCN)NC(=O)C2(CC2)CNC1=O [L-B6-D1/-]
109.409% | CC(C)CC(=O)NCCCC[C@@H]1NC(=O)[C@H](CC(C)C)NC(=O)CCSSCCNC(=O)[C@@H]2CCCN2C1=O [L-D1-B1/8] ([Mpa]LK(Isovaleryl)P-Cysteamide; disulfide 1-C)
112.403% | CC(C)C[C@@H]1NC(=O)CCSSCCNC(=O)[C@@H]2CCCN2C(=O)[C@H](CCCCNC(=O)COc2ccccc2)NC1=O [L-D1-B1/13] ([Mpa]LK(Phenoxyacetyl)P-Cysteamide; disulfide 1-C)
110.815% | Cc1nnsc1C(=O)NCCCC[C@@H]1NC(=O)[C@H](CC(C)C)NC(=O)CCSSCCNC(=O)[C@@H]2CCCN2C1=O [L-D1-B1/15] ([Mpa]LK(1,2,3Thiadiazole5CO(4-Me))P-Cysteamide; disulfide 1-C)
107.685% | NC(=O)CC[C@@H]1NC(=O)CCSSCCNC(=O)[C@H](CCCCNC(=O)c2cnccn2)NC(=O)C2(CC2)CNC1=O [Q-B6-D1/2]
108.88% | NC(=O)CC[C@@H]1NC(=O)CCSSCCNC(=O)[C@H](CCCCNC(=O)c2c[nH]c(=O)[nH]c2=O)NC(=O)C2(CC2)CNC1=O [Q-B6-D1/11]
103.639% | NC(=O)CC[C@@H]1NC(=O)CCSSCCNC(=O)[C@H](CCCCNC(=O)Cc2c[nH]c3ccccc23)NC(=O)C2(CC2)CNC1=O [Q-B6-D1/12]
99.4946% | NC(=O)CC[C@@H]1NC(=O)CCSSCCNC(=O)[C@H](CCCCNC(=O)c2ccc(Cl)s2)NC(=O)C2(CC2)CNC1=O [Q-B6-D1/14]
113.771% | NC(=O)CC[C@@H]1NC(=O)CCSSCCNC(=O)[C@H]2CCCN(C2)C(=O)[C@H](CCCCNC(=O)c2c[nH]c(=O)[nH]c2=O)NC1=O [Q-D1-B4/11]
120.491% | NC(=O)CC[C@@H]1NC(=O)CCSSCCNC(=O)[C@H]2CCCN(C2)C(=O)[C@H](CCCCNC(=O)COc2ccccc2)NC1=O [Q-D1-B4/13]
109.426% | NC(=O)CC[C@@H]1NC(=O)CCSSCCNC(=O)[C@H]2CCCN(C2)C(=O)[C@H](CCCCNC(=O)c2ccc(Cl)s2)NC1=O [Q-D1-B4/14]
